Our source for the pest or weed control, LogP and chromatographic logP values is patent US10485236B2, “Triazole derivatives, intermediates thereof and their use as fungicides” (Bayer CropScience Aktiengesellschaft, priority 2015, dated 2019).

Molecules are shown by their SMILES. Marks after values point to notes of the source that are not given here.

The test system of the first data set is Sphaerotheca fuliginea. Nature of the data set: Example D: in vivo preventive test on Sphaerotheca fuliginea (powdery mildew on cucurbits). Particulars: Podosphaera fuliginea, 360 h; 500 ppm of active ingredient; gherkin plants, preventive spray; evaluated 15 days after inoculation; read-out: efficacy. As for the experimental part: Example D: In Vivo Preventive Test on Sphaerotheca fuliginea (Powdery Mildew on Cucurbits) [table] The active ingredients are made soluble and homogenized in a mixture of Dimethyl sulfoxide/Acetone//Tween® 80 and then diluted in water to the desired concentration. The young plants of gherkin are treated by spraying the active ingredient prepared as described above. Control plants are treated only with an aqueous solution of Acetone/Dimethyl sulfoxide/Tween® 80. After 24 hours, the plants are contaminated by spraying the leaves with an aqueous suspension of Sphaerotheca fuliginea spores. The contaminated gherkin plants are incubated for 72 hours at 18° C. and at 100% relative humidity and then for 12 days at 20° C. and at 70-80% relative humidity. The test is evaluated 15 days after the inoculation. 0% means an efficacy which corresponds to that of the control plants while an efficacy of 100% means that no disease is observed.
For the molecule `OC(Cn1cncn1)c1cnc(Oc2ccc(Cl)cc2)cc1C(F)(F)F` (centres unmarked) [I.04, 1-[6-(4-chlorophenoxy)-4-(trifluoromethyl)-3-pyridyl]-2-(1,2,4-triazol-1-yl)ethanol], the pest or weed control at 500 ppm lay in the range of 90 to 100%.
Still for that read-out and setting: for `O=C(Cn1cncn1)c1cnc(Oc2ccc(Cl)cc2)cc1C(F)(F)F` [VII.02, 1-[6-(4-chlorophenoxy)-4-(trifluoromethyl)-3-pyridyl]-2-(1,2,4-triazol-1-yl)ethanone] the value was 90 to 100%.

Another data set has as its system Puccinia recondita. Nature of the data set: Example B: in vivo preventive test on Puccinia recondita (brown rust on wheat). As to conditions: 264 h, 500 ppm of active ingredient, wheat plants, preventive spray, evaluated 11 days after inoculation, read-out: efficacy. As for the experimental part: (§1) Example B: In Vivo Preventive Test on Puccinia recondita (Brown Rust on Wheat) [table] The active ingredients are made soluble and homogenized in a mixture of Dimethyl sulfoxide/Acetone//Tween® 80 and then diluted in water to the desired concentration. The young plants of wheat are treated by spraying the active ingredient prepared as described above. Control plants are treated only with an aqueous solution of Acetone/Dimethyl sulfoxide/Tween® 80. After 24 hours, the plants are contaminated by spraying the leaves with an aqueous suspension of Puccinia recondita spores. The contaminated wheat plants are incubated for 24 hours at 20° C. and at 100% relative humidity and then for 10 days at 20° C. and at 70-80% relative humidity. The test is evaluated 11 days after the inoculation. 0% means an efficacy which corresponds to that of the control plants while an efficacy of 100% means that no disease is observed.
As for `OC(Cn1cncn1)c1cnc(Oc2ccc(Cl)cc2)cc1C(F)(F)F` (centres unmarked) [I.04, 1-[6-(4-chlorophenoxy)-4-(trifluoromethyl)-3-pyridyl]-2-(1,2,4-triazol-1-yl)ethanol], the pest or weed control at 500 ppm was 90 to 100%.
Still for that read-out and setting: for `O=C(Cn1cncn1)c1cnc(Oc2ccc(Cl)cc2)cc1C(F)(F)F` [VII.02, 1-[6-(4-chlorophenoxy)-4-(trifluoromethyl)-3-pyridyl]-2-(1,2,4-triazol-1-yl)ethanone] the value was 90 to 100%.

The next data set has as its system Uromyces appendiculatus. In words: Example E: in vivo preventive test on Uromyces appendiculatus (bean rust). As to conditions: 264 h, 500 ppm of active ingredient, bean plants, preventive spray, evaluated 11 days after inoculation, read-out: efficacy. As for the experimental part: as §1, with “E:” for “B:”, “Uromyces appendiculatus (Bean Rust)” for “Puccinia recondita (Brown Rust on Wheat)”, “bean” for “wheat”, “Uromyces appendiculatus” for “Puccinia recondita”
Regarding `OC(Cn1cncn1)c1cnc(Oc2ccc(Cl)cc2)cc1C(F)(F)F` (centres unmarked) [I.04, 1-[6-(4-chlorophenoxy)-4-(trifluoromethyl)-3-pyridyl]-2-(1,2,4-triazol-1-yl)ethanol], the pest or weed control at 500 ppm was 90 to 100%.
Still for that read-out and setting: the value for `O=C(Cn1cncn1)c1cnc(Oc2ccc(Cl)cc2)cc1C(F)(F)F` [VII.02, 1-[6-(4-chlorophenoxy)-4-(trifluoromethyl)-3-pyridyl]-2-(1,2,4-triazol-1-yl)ethanone] was 80 to 89%.

The subject of a further data set is Sphaerotheca fuliginea. In words: Example M: in vivo preventive test on Sphaerotheca (cucumbers); comparison of phenoxy-pyridyl compounds vs. known phenoxy-phenyl compounds. As to conditions: Podosphaera fuliginea, 168 h, rate of application 10 ppm, evaluated 7 days after inoculation, read-out: Efficacy in %. As for the experimental part: Example M: In Vivo Preventive Test on Sphaerotheca (Cucumbers); Comparison of Phenoxy-pyridyl Compounds According to the Invention Vs. Known Phenoxy-phenyl Compounds [table] To produce a suitable preparation of active compound, 1 part by weight of active compound is mixed with the above stated amounts of solvent and emulsifier, and the concentrate is diluted with water to the desired concentration. To test for preventive activity, young plants are sprayed with the preparation of active compound at the stated rate of application. After the spray coating has dried on, the plants are inoculated with an aqueous spore suspension of Sphaerotheca fuliginea. The plants are then placed in a greenhouse at approximately 23° C. and a relative atmospheric humidity of approximately 70%. The test is evaluated 7 days after the inoculation. 0% means an efficacy which corresponds to that of the untreated control, while an efficacy of 100% means that no disease is observed. [table]
In the case of `CC(O)(Cn1cncn1)c1ccc(Oc2ccc(Cl)cc2)cc1C(F)(F)F` (centres unmarked) [reference compound], the pest or weed control at 10 ppm was 30%.

Tested on in a further data set: not listed separately
Nature of the data set: Measurement of LogP values by HPLC on reversed phase columns (EEC directive 79/831 Annex V.A8). The format is physicochemical.
Conditions: not given
The procedure, abridged: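 Calibrated with straight-chain alkan-2-ones (3–16 carbons) of known LogP, using retention times with linear interpolation between successive alkanones. Where one method gives several LogP values, all are listed, joined by "+". Lambda-max taken from UV spectra (200–400 nm) at chromatographic peak maxima.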
Take `O=C(CCl)c1ccc(Oc2ccc(OC(F)(F)F)cc2)nc1C(F)(F)F` [VI.33]: the LogP was 4.07^[a].
Take `O=C(CBr)c1ccc(Oc2ccc(Cl)cc2)nc1C(F)(F)F` [VI.34]: the LogP is 4.19^[a].
Still for that read-out and setting: the value for `O=C(CCl)c1ccc(Oc2ccc(Cl)cc2F)nc1C(F)(F)F` [VI.35] was 4.11^[a]; that for `O=C(CCl)c1ccc(Oc2ccc(C(F)F)cc2)nc1C(F)(F)F` [VI.36] was 3.50^[a].
The same measure, in the same setting: for `O=C(Cn1cncn1)c1ccc(Oc2ccc(Cl)c(Cl)c2)nc1Cl` [VII.03] the value was 3.06^[a]; for `O=C(Cn1cncn1)c1ccc(Oc2ccc(OC(F)(F)F)c(Cl)c2)nc1Cl` [VII.04], 3.33^[a]; for `O=C(Cn1cncn1)c1cnc(Oc2ccccc2)cc1Cl` [VII.05], 2.20^[a].
The same measure, in the same setting: for `O=C(Cn1cncn1)c1ccc(Oc2ccccc2)nc1Cl` [VII.06] the value was 2.21^[a]; for `O=C(Cn1cncn1)c1ncc(Oc2ccccc2)cc1Cl` [VII.07], 2.45^[a].
As to `O=C(Cn1cncn1)c1ccc(Oc2ccc(OC(F)(F)F)cc2)nc1Cl` [VII.08], the LogP is 2.95^[a].
The same measure, in the same setting: the value for `O=C(Cn1cncn1)c1ccc(Oc2ccc(Cl)cc2)nc1Cl` [VII.09] was 2.66^[a]; that for `Cc1cc(Cl)ccc1Oc1ccc(C(=O)Cn2cncn2)c(Cl)n1` [VII.10] was 2.94^[a].
Same read-out and setting: for `Cc1ccc(Oc2ccc(C(=O)Cn3cncn3)c(Cl)n2)cc1Cl` [VII.11] the value was 3.02^[a].
Same read-out and setting: the value for `O=C(Cn1cncn1)c1ccc(Oc2ccc(F)cc2)nc1Cl` [VII.12] was 2.30^[a]; that for `O=C(Cn1cncn1)c1ccc(Oc2ccc(F)cc2F)nc1Cl` [VII.13] was 2.41^[a]; that for `O=C(Cn1cncn1)c1ccc(Oc2ccccc2F)nc1Cl` [VII.14] was 2.28^[a].
`O=C(Cn1cncn1)c1ccc(Oc2cc(F)c(F)c(F)c2)nc1Cl` [VII.15]: the LogP was 2.66^[a].
Take `O=C(Cn1cncn1)c1ccc(Oc2ccc(Cl)cc2Cl)nc1Cl` [VII.16]: the LogP is 3.02^[a].
The same measure, in the same setting: for `CC(=O)c1ccc(Oc2ccc(C(=O)Cn3cncn3)c(Cl)n2)cc1` [VII.17] the value was 1.96^[a].
On the same count and under the same terms, the value for `O=C(Cn1cncn1)c1ccc(Oc2ccc(Cl)cc2)nc1OC(F)(F)F` [VII.18] was 3.23^[a]; that for `COc1ccc(Oc2ccc(C(=O)Cn3cncn3)c(Cl)n2)c(Cl)c1` [VII.19] was 2.58^[a]; that for `O=C(Cn1cncn1)c1ccc(Oc2ccc(S(F)(F)(F)(F)F)cc2)nc1Cl` [VII.20] was 3.11^[a].
The same measure, in the same setting: for `O=C(Cn1cncn1)c1cnc(Oc2ccc(S(F)(F)(F)(F)F)cc2)cc1C(F)(F)F` [VII.21] the value was 3.35^[a]; for `O=C(Cn1cncn1)c1ccc(Oc2ccc(C(F)F)cc2)nc1Cl` [VII.22], 2.39^[a].
Regarding `O=C(Cn1cncn1)c1ncc(Oc2ccc(Cl)cc2)nc1Cl` [VII.23], the LogP was 2.54^[a].
The same measure, in the same setting: the value for `O=C(Cn1cncn1)c1ccc(Oc2ccc(Br)cc2)nc1C(F)(F)F` [VII.24] was 2.99^[a]; that for `O=C(Cn1cncn1)c1ccc(Oc2ccc(Cl)cc2)nc1F` [VII.25] was 2.50^[a]; that for `O=C(Cn1cncn1)c1cnc(Oc2ccc(OC(F)(F)F)cc2)cc1C(F)(F)F` [VII.26] was 3.27^[a].
On the same count and under the same terms, for `O=C(Cn1cncn1)c1cnc(Oc2ccc(Br)cc2)cc1C(F)(F)F` [VII.27] the value was 3.02^[a].
On the same count and under the same terms, the value for `O=C(Cn1cncn1)c1cnc(Oc2ccc(C(F)(F)F)cc2)cc1C(F)(F)F` [VII.28] was 3.17^[a]; that for `O=C(Cn1cncn1)c1cnc(Oc2ccc(C(F)F)cc2)cc1C(F)(F)F` [VII.29] was 2.80^[a].
As to `O=C(Cn1cncn1)c1cnc(Oc2ccc(Cl)cc2F)cc1C(F)(F)F` [VII.30], the LogP is 3.06^[a].
Same read-out and setting: the value for `O=C(Cn1cncn1)c1ccc(Oc2ccc(S(F)(F)(F)(F)F)cc2)nc1C(F)(F)F` [VII.31] was 3.23^[a]; that for `O=C(Cn1cncn1)c1ccc(Oc2ccc(C(F)(F)F)cc2)nc1C(F)(F)F` [VII.32] was 3.04^[a].
For `O=C(Cn1cncn1)c1ccc(Oc2c(F)cc(Cl)cc2F)nc1C(F)(F)F` [VII.33], the LogP is 2.96^[a].
Still for that read-out and setting: the value for `CC(C)c1ccc(Oc2ccc(C(=O)Cn3cncn3)c(C(F)(F)F)n2)cc1` [VII.34] was 3.44^[a]; that for `O=C(Cn1cncn1)c1ccc(Oc2ccc(Br)cc2)nc1C(F)F` [VII.35] was 2.68^[a].
Same read-out and setting: the value for `O=C(Cn1cncn1)c1cnc(Oc2ccc(Cl)cc2)cc1C(F)F` [VII.36] was 2.51^[a].
Still for that read-out and setting: the value for `O=C(Cn1cncn1)c1ccc(Oc2ccc(Cl)cc2F)nc1C(F)(F)F` [VII.37] was 2.74^[a]; that for `O=C(Cn1cncn1)c1cnc(Oc2ccc(Cl)cc2)cc1Cl` [VII.38] was 2.60^[a]; that for `O=C(Cn1cncn1)c1ccc(Oc2ccc(OC(F)(F)F)cc2)nc1C(F)(F)F` [VII.39] was 2.95^[a].
Consider `O=C(Cn1cncn1)c1cnc(Oc2ccc(C(F)(F)F)cc2)cc1Cl` [VII.40], for which the LogP was 2.92^[a].
On the same count and under the same terms, for `O=C(Cn1cncn1)c1cnc(Oc2ccc(Br)cc2)cc1C(F)F` [VII.41] the value was 2.61^[a]; for `O=C(Cn1cncn1)c1ccc(Oc2ccc(C(F)F)cc2)nc1C(F)(F)F` [VII.42], 2.41^[a].

The same data set, now with this note: reversed phase HPLC column, method [a]: LC-UV, acidic range, 0.1% formic acid in water and acetonitrile as eluent.
Usually chromatographic logP stands for a lipophilicity value derived from retention on a column. A higher chromatographic logP goes with higher lipophilicity. Regarding `OC(Cn1cncn1)c1cnc(Oc2ccc(Cl)cc2)cc1C(F)(F)F` (centres unmarked) [I.04, 1-[6-(4-chlorophenoxy)-4-(trifluoromethyl)-3-pyridyl]-2-(1,2,4-triazol-1-yl)ethanol], the chromatographic logP stood at 2.68.

The data set is the same for the next values; noted with them: reversed phase HPLC column, method [a]; compounds of formula (VII), Table 4.
On to `O=C(Cn1cncn1)c1cnc(Oc2ccc(Cl)cc2)cc1C(F)(F)F` [VII.02, 1-[6-(4-chlorophenoxy)-4-(trifluoromethyl)-3-pyridyl]-2-(1,2,4-triazol-1-yl)ethanone], for which the chromatographic logP amounted to 2.92.
